Values of other authors, collected in patent publication US9291622B2, “Complement assays and uses thereof” (Apellis Pharmaceuticals, Inc., priority 2009, dated 2016).
[ ]: non-standard residue; d: D form. Trp(5-F) = N[C@@H](Cc1c[nH]c2ccc(F)cc12)C(=O)O; Trp(5-Me) = Cc1ccc2[nH]cc(C[C@H](N)C(=O)O)c2c1; Trp(6-F) = N[C@@H](Cc1c[nH]c2cc(F)ccc12)C(=O)O; Bpa = N[C@@H](Cc1ccc(C(=O)c2ccccc2)cc1)C(=O)O; 1Nal = N[C@@H](Cc1cccc2ccccc12)C(=O)O; 2Nal = N[C@@H](Cc1ccc2ccccc2c1)C(=O)O; Igl = N[C@H](C(=O)O)C1Cc2ccccc2C1; Dht = dihydrotryptophan

Test system: complement activation
Settings: fold activity relative to compstatin (H-ICVVQDWGHHRCT-CONH2)

Row | Substance | Activity over compstatin [× more]
1 | Ac-ICV(1-Nal)QDWGAHRCT-COOH (Ac-ICV[1Nal]QDWGAHRCT-OH; cysteine pairing not given here) [Ac V4(1-Nal)/H9A —OH] | 30
2 | Ac-ICV(2-Igl)QDWGAHRCT-CONH2 (Ac-ICV[Igl]QDWGAHRCT-NH2; cysteine pairing not given here) [Ac-V42Igl/H9A] | 39
3 | Ac-ICV(2-Igl)QDWGAHRCT-COOH (Ac-ICV[Igl]QDWGAHRCT-OH; cysteine pairing not given here) [Ac-V42Igl/H9A —OH] | 37
4 | Ac-ICV(2-Nal)QDWGAHRCT-CONH2 (Ac-ICV[2Nal]QDWGAHRCT-NH2; cysteine pairing not given here) [Ac-V4(2-Nal)/H9A] | 99
5 | Ac-ICV(2-Nal)QDWGAHRCT-COOH (Ac-ICV[2Nal]QDWGAHRCT-OH; cysteine pairing not given here) [Ac V4(2-Nal)/H9A —OH] | 38
6 | Ac-ICV(5-methyl-W)QDWGAHRCT-CONH2 (Ac-ICV[Trp(5-Me)]QDWGAHRCT-NH2; cysteine pairing not given here) [Ac-V4(5-MeW)/H9A] | 67
7 | Ac-ICV(5fW)QD(5fW)GAHRCT-CONH2 (Ac-ICV[Trp(5-F)]QD[Trp(5-F)]GAHRCT-NH2; cysteine pairing not given here) [Ac-V4(5fW)/W7(5fW)/H9A] | 161
8 | Ac-ICV(5fW)QDWGAHRCT-CONH2 (Ac-ICV[Trp(5-F)]QDWGAHRCT-NH2; cysteine pairing not given here) [Ac-V4(5fW)/H9A] | 31
9 | Ac-ICV(Bpa)QDWGAHRCT-CONH2 (Ac-ICV[Bpa]QDWGAHRCT-NH2; cysteine pairing not given here) [Ac-V4(Bpa)/H9A] | 86
10 | Ac-ICV(Bpa)QDWGAHRCT-COOH (Ac-ICV[Bpa]QDWGAHRCT-OH; cysteine pairing not given here) [Ac-V4(Bpa)/H9A —OH] | 49
11 | Ac-ICVDhtQDWGAHRCT-COOH (Ac-ICV[Dht]QDWGAHRCT-OH; cysteine pairing not given here) [Ac-V4Dht/H9A —OH] | 5
12 | Ac-ICVVQDWGHHRCT-CONH2 [Ac-compstatin] | 3
13 | Ac-ICVWQD(5fW)GAHRCT-CONH2 (Ac-ICVWQD[Trp(5-F)]GAHRCT-NH2; cysteine pairing not given here) [Ac-V4W/W7(5fW)/H9A] | 121
14 | Ac-ICVWQDWGAHRCT-CONH2 (Ac-ICVWQDWGAHRCT-NH2; cysteine pairing not given here) [Ac-V4W/H9A] | 45
15 | Ac-ICVWQDWGAHRCdT-COOH [Ac-V4W/H9A/T13dT —OH] | 55
16 | Ac-ICVYQDWGAHRCT-CONH2 [Ac-V4Y/H9A] | 14
17 | H-GICV(6fW)QD(6fW)GAHRCTN-COOH (H-GICV[Trp(6-F)]QD[Trp(6-F)]GAHRCTN-OH; cysteine pairing not given here) [+G/V4(6fW)/W7(6fW)H9A +N —OH] | 126
